From patent publication US20210308034A1, “PREBIOTIC COMPOSITIONS AND METHODS FOR MAINTAINING A HEALTHY SKIN MICROBIOTA” (KIMBERLY-CLARK WORLDWIDE, INC., priority 2018, published 2021)

How the values were obtained:
Assay type in all cases: cell-based
[1] = tested on: Staphylococcus epidermidis (ATCC 14990); assay: Carbohydrate Screening Test Method (Biolog phenotype microarray), Bacteria Code I; details: Commensal; carbon microarray plate, OD 600 nm, 36 hr, 33° C.; positive = more than 0.05 OD units above zero; blank cell = not utilized
Description: (§1) After creating desired ratios of various commensal skin bacteria in a healthy skin microbiome, 188 different carbohydrate sources were screened as the next step in determining potential prospects for skin microbiota balancing agents. The screening process was set up to determine which carbohydrate sources promoted commensal and/or pathogenic bacteria as well as to obtain individual and combinations of carbohydrate sources that could serve as microbiota balancing agents that can support or maintain the healthy proportions of commensal skin bacteria of Corynebacterium, Staphylococcus, and Micrococcus. The screening was conducted utilizing Biolog phenotype microarray plates (Hayward, Calif.). Table 1 provides a coded list of the commensal and pathogenic skin bacteria that the carbohydrates were screened against.
Table 2 provides the results of screening various carbohydrate sources against the commensal and pathogenic bacteria codes listed in Table 1. The Bacteria Codes B, D, E, I, and J are commensal bacteria and are shaded in Table 2 for references purposes. The bacteria codes were each placed in a carbon microarray plate and screened through the Carbohydrate Screening Test Method, as described in the Test Methods section herein. If a particular bacteria code utilized a specific carbohydrate source as described in the Carbohydrate Screening Test Method, then the corresponding cell in Table 2 was marked with a Y (short for “Yes”). […] Many of the carbohydrate sources were utilized by both commensal and pathogenic bacteria, and as such, would not provide an advantage for selective growth of the commensal bacteria. However, some of the carbohydrate sources were only used by commensal bacteria and were identified for further testing as described herein.
(§2) The study employed 10 representative skin bacteria; Staphylococcus epidermidis ATCC 14990, Staphylococcus epidermidis M23864:W2, Staphylococcus aureus ATCC 6538, Staphylococcus aureus ATCC 25904 (Newman), Pseudomonas aeruginosa ATCC 9027, Micrococcus luteus ATCC […], Micrococcus luteus SK58, Klebsiella pneumoniae ATCC BAA-2146, Corynebacterium amycolatum SK46, and Corynebacterium minutissimum ATCC 23348. Cultures were started from freezer bead stocks by placing a single bead into 20 mL of tryptic soy broth (TSB) for all organisms except C. amycolatum SK46 and C. minutissimum ATCC 23348, which were placed into brain heart infusion (BHI) broth. Cultures were grown for about 24 hr at 37° C. except M. luteus ATCC 49732 and M. luteus SK58, which were grown at 30° C. A passage of the culture was made using a sterile swab and streaked onto two M9*2 agar plates to prepare the incubated culture for the phenotype microarray pate according to Table 4. Plates were incubated for about 24 hr at 37° C. except for M. luteus ATCC 49732 and M. luteus SK58, which were incubated at 30° C. for 24 hr.
(§3) All cultures were harvested and washed before inoculation into the carbon microarray plate (BiOLOG, Hayward Calif.), with Biolog Plates PM1 and PM2 each having a source definition of Carbon. The bacteria on the M9*2 agar was suspended via agitation with an inoculating loop in 1 mL of M9*1 media for collection in a 1.7 mL micro centrifuge tube, as noted in Table 4. The bacteria was suspended again in M9*1 media, agitated, and collected into the same 1.7 mL microcentrifuge tube used in the previous step. The tube was centrifuged for 5 minutes at 4,000×G, supernatant decanted, the pellet was resuspended in 1 mL of M9*1 media, and vortex. This washing process was repeated for a total of 4 times.
A tenfold dilution in M9*1 media was performed using 1 mL of the washed bacterial culture. Of the tenfold dilution 200 μL was placed in an untreated 96-well plate (Falcon, Pasadena Tx.) for an initial optical density (OD) reading at a wavelength of 600 nm. The OD was used to correlate to colony forming units (CFU) per milliliter by using linear regression lines for each organism. […]

[2] = tested on: Corynebacterium jeikum (ATCC 33033); assay: Carbohydrate Screening Test Method (Biolog phenotype microarray), Bacteria Code B; details: Commensal; carbon microarray plate, OD 600 nm, 36 hr, 33° C.; positive = more than 0.05 OD units above zero; blank cell = not utilized
Procedure, shortened: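 Strain from M9*2 agar was suspended in M9*1 medium, washed and inoculated into Biolog PM1/PM2 carbon plates. Carbohydrate use was scored yes/no, and growth rate and maximum yield were derived with GrowthRates 2.1, with max yields used for commensal ratios.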

[3] = tested on: Micrococcus luteus (SK58); assay: Carbohydrate Screening Test Method (Biolog phenotype microarray), Bacteria Code E; details: Commensal; carbon microarray plate, OD 600 nm, 36 hr, 33° C.; positive = more than 0.05 OD units above zero; blank cell = not utilized
Procedure, shortened: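 Each commensal strain grown in Biolog carbon phenotype microarray plates with single carbohydrate sources. Growth curves fitted with GrowthRates 2.1 to give growth rate and maximum yield. Max yields used to calculate predicted co-culture ratios between Corynebacterium, Staphylococcus and Micrococcus, compared with desired ratios of 1.3, 1.4 and 1.1.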

[4] = tested on: Staphylococcus epidermidis (M23864:W2); assay: Carbohydrate Screening Test Method (Biolog phenotype microarray), Bacteria Code J; details: Commensal; carbon microarray plate, OD 600 nm, 36 hr, 33° C.; positive = more than 0.05 OD units above zero; blank cell = not utilized
Description: as §1
(§4) The Bacteria Codes B, D, E, I, and J are commensal bacteria and are shaded in Table 2 for references purposes. The bacteria codes were each placed in a carbon microarray plate and screened through the Carbohydrate Screening Test Method, as described in the Test Methods section herein. If a particular bacteria code utilized a specific carbohydrate source as described in the Carbohydrate Screening Test Method, then the corresponding cell in Table 2 was marked with a Y (short for “Yes”).
To do so, the respective microarray data for the 79 carbohydrate sources was run through the GrowthRates 2.1 program to obtain growth parameters, such as growth rates and maximum yield data as described by the Belingham Research Institute, Hall, B. G., H. Acar and M. Barlow. 2014 Growth Rates Made Easy. Mol. Biol. Evol. 31:232-238 doi:10.1093/molbev/mst197. The max yield parameters generated were utilized to calculate ratios of tested commensal bacteria. The ratios calculated were compared back to the desired ratios identified above (Corynebacterium to Staphylococcus of 1.3, Corynebacterium to Micrococcus of 1.4, and Staphylococcus to Micrococcus of 1.1).
As an example of this methodology used to calculate the commensal bacteria ratios and the difference between the calculated ratios and the desired ratios, an example code from Table 3 will be described. […] The max yields were then used to calculate ratios the bacteria would reach in a co-culture.

[5] = tested on: Pseudomonas aeruginosa (ATCC 9027); details: Pathogenic; carbon microarray plate, OD 600 nm, 36 hr, 33° C.; positive = more than 0.05 OD units above zero; blank cell = not utilized
Description: as §1, §4, §2, §3
A tenfold dilution in M9*1 media was performed using 1 mL of the washed bacterial culture. Of the tenfold dilution 200 μL was placed in an untreated 96-well plate (Falcon, Pasadena Tx.) for an initial optical density (OD) reading at a wavelength of 600 nm. The OD was used to correlate to colony forming units (CFU) per milliliter by using linear regression lines for each organism.

[6] = tested on: commensal and pathogenic skin bacteria; assay: Carbohydrate Screening Test Method, all bacteria codes tested; details: ten bacteria codes of Table 1
Description: as §1, §4, §2, §3
A tenfold dilution in M9*1 media was performed using 1 mL of the washed bacterial culture.

[7] = tested on: Klebsiella pneumoniae (ATCC BAA-2146); details: Pathogenic; carbon microarray plate, OD 600 nm, 36 hr, 33° C.; positive = more than 0.05 OD units above zero; blank cell = not utilized

O=C(O)C[C@@H](O)C(=O)O [D-Malic Acid]
Carbohydrate Screening Results, Bacteria Code I [1]: Y
Carbohydrate Screening Results, Bacteria Code B [2]: Y
Carbohydrate Screening Results, Bacteria Code E [3]: Y

CC(=O)C(C)O (centres unmarked) [3-Hydroxy 2-Butanone]
Carbohydrate Screening Results, Bacteria Code I [1]: Y
Carbohydrate Screening Results, Bacteria Code J [4]: Y

Tween 80
Carbohydrate Screening Results, Bacteria Code I [1]: Y
Carbohydrate Screening Results, Bacteria Code B [2]: Y
Carbohydrate Screening Results, Bacteria Code E [3]: Y

CC(O)CC(=O)O (stereo not drawn) [β-Hydroxy Butyric Acid]
Carbohydrate Screening Results, Bacteria Code I [1]: Y
Carbohydrate Screening Results, Bacteria Code F [5]: Y

CC(O)C(C)O (centres unmarked) [2,3-Butanediol]
Carbohydrate Screening Results, Bacteria Code I [1]: Y
Carbohydrate Screening Results, Bacteria Code J [4]: Y

O=C(O)CCCCCCCCC(=O)O [Sebacic Acid]
Carbohydrate Screening Results, Bacteria Code I [1]: Y
Carbohydrate Screening Results, Bacteria Code J [4]: Y

O=C(CO)[C@@H](O[C@H]1O[C@H](CO)[C@@H](O)[C@H](O)[C@H]1O)[C@H](O)[C@H](O)CO [Turanose]
Carbohydrate Screening Results, Bacteria Code I [1]: Y

Inulin
Carbohydrate Screening Results, Bacteria Code I [1]: Y
Carbohydrate Screening Results, Bacteria Code J [4]: Y

O=C(O)C(=O)O [Oxalic Acid]
Carbohydrate Screening Results, Bacteria Code I [1]: Y
Carbohydrate Screening Results, Bacteria Code J [4]: Y

Pectin
Carbohydrate Screening Results, Bacteria Code I [1]: Y
Carbohydrate Screening Results, Bacteria Code J [4]: Y

OC[C@H]1O[C@@H]2O[C@H]3[C@H](O)[C@@H](O)[C@@H](O[C@H]4[C@H](O)[C@@H](O)[C@@H](O[C@H]5[C@H](O)[C@@H](O)[C@@H](O[C@H]6[C@H](O)[C@@H](O)[C@@H](O[C@H]7[C@H](O)[C@@H](O)[C@@H](O[C@H]1[C@H](O)[C@H]2O)O[C@@H]7CO)O[C@@H]6CO)O[C@@H]5CO)O[C@@H]4CO)O[C@@H]3CO [α-Cyclodextrin]
Carbohydrate Screening Results, Bacteria Code I [1]: Y
Carbohydrate Screening Results, Bacteria Code J [4]: Y

OC[C@@]12OC[C@@H](O1)[C@@H](O)[C@@H](O)[C@@H]2O [Sedoheptulosan]
utilization by the bacteria codes tested [6]: not utilized by any of the bacteria

OC[C@H]1O[C@@H](O[C@H]2[C@H](O)[C@@H](O)[C@H](O)O[C@@H]2CO)[C@H](O)[C@@H](O)[C@@H]1O [D-Cellobiose]
Carbohydrate Screening Results, Bacteria Code I [1]: Y
Carbohydrate Screening Results, Bacteria Code C [7]: Y
Carbohydrate Screening Results, Bacteria Code B [2]: Y
Carbohydrate Screening Results, Bacteria Code E [3]: Y

OC[C@@H](O)[C@@H](O)CO [i-Erythritol]
utilization by the bacteria codes tested [6]: not utilized by any of the bacteria

O=C(O)c1ccccc1O [2-Hydroxy Benzoic Acid]
utilization by the bacteria codes tested [6]: not utilized by any of the bacteria

O=C[C@@H](O)[C@H](O)[C@@H](O)[C@@H](O)CO [L-Glucose]
utilization by the bacteria codes tested [6]: not utilized by any of the bacteria

COC1OCC(O)C(O)C1O [β-Methyl-D-Xyloside]
utilization by the bacteria codes tested [6]: not utilized by any of the bacteria

CO[C@H]1O[C@H](CO)[C@@H](O)[C@H](O)[C@H]1O [α-Methyl-D-Glucoside]
utilization by the bacteria codes tested [6]: not utilized by any of the bacteria

O=C[C@H](O)[C@H](O)[C@H](O)CO [D-Ribose]
utilization by the bacteria codes tested [6]: not utilized by any of the bacteria

NCCCC(=O)O [γ-Amino Butyric Acid]
Carbohydrate Screening Results, Bacteria Code I [1]: Y
Carbohydrate Screening Results, Bacteria Code J [4]: Y

COC(=O)CCC(=O)O [Mono Methyl Succinate]
Carbohydrate Screening Results, Bacteria Code I [1]: Y
Carbohydrate Screening Results, Bacteria Code B [2]: Y
Carbohydrate Screening Results, Bacteria Code E [3]: Y

N[C@@H](CCO)C(=O)O [L-Homoserine]
Carbohydrate Screening Results, Bacteria Code I [1]: Y

OC[C@H](O)C(O)[C@@H](O)CO [L-Arabitol]
utilization by the bacteria codes tested [6]: not utilized by any of the bacteria

2,3-Butanone
utilization by the bacteria codes tested [6]: not utilized by any of the bacteria

O=C(CO)[C@@H](O)[C@@H](O)[C@H](O)CO [D-Tagatose]
utilization by the bacteria codes tested [6]: not utilized by any of the bacteria

O=C[C@H](O)[C@H](O)[C@@H](O)CO [L-Lyxose]
utilization by the bacteria codes tested [6]: not utilized by any of the bacteria
